Reference: patent publication US20250290080A1, “METHODS TO PREVENT RAPID SILENCING OF GENES IN PLURIPOTENT STEM CELLS” (FUJIFILM Cellular Dynamics, Inc., priority 2021, published 2025)
Entries after “also recorded” stand apart in the source; their conditions may differ.

Tests used:
iPSC line 01279.107 [1] = assay: ZsGreen expression in engineered iPSC lines in long-term culture, flow cytometry; assay type: cell-based, human; details: for ZsGreen expression in iPSC over time: culture up to seven months, E8 media/vitronectin
Description: ZsGreen Constructs Integrated at the AAVS1 Safe Harbor Locus: To examine longer term expression driven by the candidate promoters in a chromosomal context, they were cloned into plasmids controlling ZsGreen fluorescent protein and targeted to the AAVS1 safe harbor locus on chromosome 19 in human iPSC (plasmid design is shown below using the CAG promoter as an example). […] Correctly targeted heterozygous clones were expanded.
Genomic Loci Suitable for Tagging to Yield Constitutive Expression: In addition to promoter-driven expression from a safe harbor, specific genes expressed in most cell-types can be tagged with a reporter gene to give constitutive expression. The genes HSP90AB1, ACTB, CTNNB1, and MYL6 were chosen for evaluation and were tagged with ZsGreen and an F2A cleavage sequence via TALEN-mediated gene editing. Correctly targeted heterozygous clones were expanded.
ZsGreen expression in iPSC: Engineered iPSC lines expressing ZsGreen fluorescent protein were maintained in culture for up to seven months (E8 media/vitronectin coated plates) and periodically checked for green expression using flow cytometry on an Accuri C6 instrument (BD).

iPSC line 01279.107 [2] = assay: Luciferase expression during transient transfection of promoter-pGL3 plasmids (Dual-Luciferase Reporter Assay); assay type: cell-based, human; details: assayed one day later
Description: Promoters cloned: The following promoters were identified as being likely candidates for constitutive expression in all cell types. Some were cloned from existing plasmids (CAG, PGK, UBC-version1, EEF1A1, ACTB). […] The new promoters include RPS19, UBA52, HSP90AB1, an enlarged region of UBC (version 2), UBB, RPSA, NACA, and COX8A. Sequences were cloned into the pGL3 plasmid vector (replacing the SV40 promoter between MluI and NcoI restriction sites) to enable a comparison of promoter strength when driving the luciferase reporter gene.
Luciferase expression during transient transfection: Transient transfection was performed of the promoter-pGL3 plasmids into iPSCs to determine the strength of expression. Using a 96wp format, 50 uL of E8 media+10 uM blebbistatin was added to each well. Each plasmid was assayed in triplicate by adding 16.5 uL of the following reagent preparation. One well of a 6wp of iPSC line 01279.107 was harvested using Accutase, resuspended in 3.5 mL E8 media+10 uM blebbistatin, and 50 uL was added to each well. One day later the cells were assayed using the Dual-Luciferase Reporter Assay System (Promega).
Expression values at or above the level of the PGK promoter were desired so RPS19, UBA52, HSP90AB1, and UBC were selected for further study.

[3] = tested on: iPSC-derived cardiac cells; assay: ZsGreen expression after cardiac differentiation protocol, day 21 flow cytometry; assay type: cell-based, human; details: day 21 of differentiation
Description: (§1) Differentiation: In order to determine the stability of expression post-differentiation, the engineered lines were subjected to differentiation protocols to direct them toward either neuronal or cardiac cell types.

[4] = tested on: iPSC-derived neuronal cells; assay: ZsGreen expression after neuronal differentiation protocol, day 21 flow cytometry; assay type: cell-based, human; details: day 21 of differentiation
Description: as §1

[5] = tested on: silenced CpG-free AcGFP1 clones; assay: NaBut treatment of silenced CpG-free AcGFP1 clones, % GFP expression by flow cytometry; assay type: cell-based
Description: FIGS. 5A-5B: Silenced transgene be reactivated with NaBut treatment. A small number of cells were silenced in the CpG-free AcGPF1 cultures (<3% of cells, FIG. 3A). These silenced cells were single cell sorted and expanded to further investigate their silencing and research methods for overcoming the silencing. Two months after sorting for no GFP expression, silenced CpG-free AcGFP1 clones were treated with 1 mM, 0.5 mM, or 1 μM of NaBut. […] After a successful pilot experiment, the duration of NaBut treatment was increased to 46 days with NaBut treatment doses of 0.25 mM and 0.5 mM and the GFP expression levels were monitored over time by fluorescent microscopy and flow cytometry. The initial results were confirmed (FIGS. 5A and 5B, dark blue bar: day 8 of treatment).
However, after 5 months, a small percentage of cells were detected with no GFP expression (3%) even though the CpGs had been removed from AcGFP1. To investigate this population, clones were isolated by single cell sorting for no GFP expression. The cells were treated with sodium butyrate (NaBut), a histone deacetylase (HDAC) inhibitor capable of removing chromatin structure and inducing demethylation.

iPSCs = assay: Fluorescent protein transgene expression over time in engineered iPSCs (PPP1R12C/AAVS1 locus); assay type: cell-based
Description: FIGS. 1A-1D: ZsGreen expression driven by EEF1A1p is mottled in iPSCs. iPSCs 01278.103 (FIG. 1A, 1B) and 01279.107 (FIG. 1C, 1D) were engineered with EEF1A1p-ZsGreen at the PPP1R12C locus. Brightfield and Fluorescence (GFP) microscopy were used to capture the GFP expression in the cells 11 passages post-engineering (FIGS. 1A-1B) or 18 passages post-engineering (FIGS. 1C-1D).
The percent GFP expression in five clones targeted with EEF1A1p-CpG-free-AcGFP1 (FIG. 3A) and nine clones targeted with EEF1A1p-AcGFP1 (FIG. 3B) at the AAVS1 locus was monitored overtime.
FIGS. 4A-4C: Rapid silencing of AcGFP1 in iPSCs. Depiction of engineering iPSCs at the PPP1R12C locus (AAVS1 safe harbor) with three cassettes EEF1A1p-mRFP1+PGKp-Puro, EEF1A1p-AcGFP1 or EEF1A1p-CpG-Free AcGFP1. Noted within the figure are the engineered iPSC ID numbers for cell lines 8717 and 9650 which are used in further experiments throughout the document (FIG. 4A). […] After two months in culture, AcGFP1 engineered iPSCs were bulk sorted for AcGFP1 expression. Brightfield and Fluorescence (GFP) microscopy was used to capture the GFP expression in the cells 12 days post-sorting (FIG. 4B) or 23 days post-sorting (FIG. 4C).
The EEF1A1 promoter was used for expression of AcGFP1 in iPSCs at the PPP1R12C locus.

iPSC line 2.038 = assay: Drug resistance of iPSC line 2.038 transfected with WT PuroR vs. CpG-free PuroR plasmids; assay type: cell-based; details: cassette introduced into iPSCs by electroporation
Description: The CpG-free PuroR cassette was introduced into iPSCs by electroporation.

Molecule	ZsGreen expression in iPSC over time (iPSC line 01279.107 [1])	ZsGreen expression after cardiac differentiation [3]	ZsGreen fluorescence after neuronal differentiation [4]	other results
HSP90AB1del400 promoter: HSP90AB1 promoter with 417 bp deletion between two ClaI sites, SEQ ID NO:4	stable iPSC expression over four months	varying amounts of expression silencing	many cells with diminishing fluorescence	Normalized luciferase (Firefly/Renilla ratio, normalized to EEF1A1=100%) (iPSC line 01279.107 [2]): around 66%
RPS19: RPS19 promoter, SEQ ID NO:2	stable iPSC expression over four months	varying amounts of expression silencing	tight and stable expression	ZsGreen expression in iPSC at seven months (iPSC line 01279.107 [1]; out to seven months in culture): some silencing
HSP90AB1 promoter: HSP90AB1 promoter, SEQ ID NO:5				Normalized luciferase (Firefly/Renilla ratio, normalized to EEF1A1=100%) (iPSC line 01279.107 [2]): ~75%
CCCC(=O)[O-].[Na+] [NaBut, sodium butyrate]				effect on GFP expression levels over time ([5]; 0.25 mM and 0.5 mM NaBut, 46 days): dose dependent effect; reactivation of GFP expression ([5]; 1 mM, 0.5 mM, or 1 μM NaBut, nine days, flow cytometry): dose dependent reactivation; also recorded: dose-dependent reactivation
UBA52: UBA52 promoter, SEQ ID NO:3	stable iPSC expression over four months	tight and stable expression	tight and stable expression	
AcGFP1: Aequorea coerulescens green fluorescence protein DNA sequence, SEQ ID NO:13 [reference compound]				cells with no GFP expression (silenced) (iPSCs; CpG-free AcGFP1 cultures, after 5 months): 3%; stability of fluorescent protein expression over time (iPSCs; EEF1A1 promoter, PPP1R12C (AAVS1) locus, iPSCs in culture): not maintained overtime; also recorded: did not retain consistent expression
CpG-free PuroRv1: CpG-free puromycin resistance gene sequence, SEQ ID NO:15 (nucleic acid, misc_feature 1..606 Synthetic promotor sequence) DNA: ATGACTGAATACAAACCAACTGTTAGACTGGCAACTAGAGATGATGTTCCAAGAGCAGTTAGAACCCTGGCTGCTGCATTTGCTGACTACCCTGCAACCAGACACACTGTGGACCCAGACAGACACATTGAAAGAGTGACTGAACTGCAGGAGCTGTTCCTGACCAGAGTGGGCCTGGACATTGGCAAAGTGTGGGTGGCAGATGATGGTGCTGCTGTGGCAGTGTGGACCACCCCTGAATCTGTTGAAGCTGGTGCAGTGTTTGCTGAGATTGGCCCAAGAATGGCAGAACTGTCTGGCAGCAGACTGGCAGCACAACAGCAGATGGAAGGTCTGCTGGCACCACACAGACCAAAAGAACCTGCTTGGTTCCTGGCAACTGTGGGTGTGAGCCCTGACCACCAGGGTAAGGGCCTGGGCTCTGCAGTGGTGCTGCCTGGTGTGGAAGCAGCTGAAAGAGCAGGTGTGCCTGCTTTCCTGGAGACCTCAGCTCCAAGAAACCTGCCTTTCTATGAAAGACTGGGCTTCACTGTGACTGCTGATGTGGAAGTGCCAGAAGGCCCAAGAACTTGGTGCATGACTAGAAAACCAGGTGCTTGATAATGA				drug resistance conferred (iPSC line 2.038): capable of conferring drug resistance
PuroRv2: CpG-free puromycin resistance gene version 2, SEQ ID NO:16 (nucleic acid, misc_feature 1..606 Synthetic promotor sequence) DNA: ATGACTGAATACAAACCAACTGTTAGACTGGCAACTAGAGATGATGTTCCAAGAGCAGTTAGAACCCTGGCTGCTGCATTTGCTGACTACCCTGCAACCAGACACACTGTGGACCCAGACAGACACATTGAAAGAGTGACTGAACTGCAGGAGCTGTTCCTGACCAGAGTGGGCCTGGACATTGGCAAAGTGTGGGTGGCAGATGATGGTGCTGCTGTGGCAGTGTGGACCACCCCTGAATCTGTTGAAGCTGGTGCAGTGTTTGCTGAGATTGGCCCAAGAATGGCAGAACTGTCTGGCAGCAGACTGGCAGCACAACAGCAGATGGAAGGTCTGCTGGCACCACACAGACCAAAAGAACCTGCTTGGTTCCTGGCAACTGTGGGTGTGAGCCCTGACCACCAGGGTAAGGGCCTGGGCTCTGCAGTGGTGCTGCCTGGTGTGGAAGCAGCTGAAAGAGCAGGTGTGCCTGCTTTCCTGGAGACCTCAGCTCCAAGAAACCTGCCTTTCTATGAAAGACTGGGCTTCACTGTGACTGCTGATGTGGAATGCCCAAAGGACAGAGCAACTTGGTGCATGACTAGAAAACCAGGTGCTTGATAATGA				drug resistance conferred (iPSC line 2.038): capable of conferring drug resistance
